Experimental data as given in patent US8536178B2, “Pharmaceutical composition for preventing or treating diseases associated with beta-amyloid accumulation containing morpholin or piperazine based compounds having SO3H or COOH as active ingredient” (Korea Institute of Science and Technology, priority 2009, dated 2013).
One block for each compound: values may come before it.

Columns and labels:
Aβ40 fibril = target: T1, Aβ40 fibril (Homo sapiens, UniProt P05067); assay: Accumulated beta-amyloid disaggregation activity by thioflavin T (ThT) fluorescence intensity, Aβ40; type: biochemical; conditions: Aβ40 50 μM, compound 20 mM
T1 construct: beta-amyloids 40 and 42 consisting of 40 and 42 amino acids
T1 sequence (P05067 672-711 limits assumed): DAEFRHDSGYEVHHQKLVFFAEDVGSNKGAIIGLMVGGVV
Description: (§1) In order to measure the disaggregation activity of the beta-amyloid aggregate of a compound according to the present invention, the following experiment was performed using thioflavin T (ThT) fluorescence intensity.
(§2) Thioflavin T (ThT) is well mixed with fibril which is a beta-amyloid aggregate in a solution and tends to increase the fluorescence intensity as the concentration of fibril increases.
(§3) For aggregation of beta-amyloid, a beta-amyloid stock solution was prepared. The beta-amyloid stock solutions were prepared in a DMSO solution such that Aβ40 or Aβ42 might have a concentration of 5 mM and 2.5 mM, respectively, and diluted in distilled water by 10 times to prepare Aβ40 and Aβ42 at a final concentration of 500 μM and 250 μM, respectively. It was cultured at 37° C. for 7 to 10 days to prepare a sufficient amount of beta-amyloid aggregate. Subsequently, compounds of chemical formula 1a to 1e according to the present invention or distilled water were again added into each accumulated beta-amyloid to obtain 10-times diluted solutions, and then they were cultured at 37° C. for 7 days. Distilled water was used as a control group. The final concentration of the compound was 20 mM, and the final concentrations of beta-amyloid Aβ40 or Aβ42 were 50 μM and 25 μM, respectively. After distilled water or the compound was added, 25 μl of each reaction solution on 0th, 3rd, and 7th day was aliquoted into each well, into which was added 75 μl of thioflavin T (ThT) to have thioflavin T (ThT) at a concentration of 5 μM. It was cultured for additional 15 minutes, and then the fluorescence intensity of a half well 96 fluorescence microplate was measured by Envision 2103 multilabel reader, Perkin-Elmer. During the measurement of fluorescence intensity, the wavelengths of excitation and emission were 450 nm and 485 nm, respectively and the counting time was 0.5 sec. […]

accumulated Aβ40 = target: T2, accumulated Aβ40 (Homo sapiens, UniProt P05067); assay: Beta-amyloid fibril disaggregation activity by SDS-PAGE, Aβ40; type: biochemical; conditions: Aβ40 50 μM, compound 20 mM, 3rd and 7th day, photo-induced cross-linking, silver staining
T2 construct: beta-amyloids 40 and 42 consisting of 40 and 42 amino acids
T2 sequence (P05067 672-711 limits assumed): as above
Description: (§4) In order to measure the accumulated beta-amyloid disaggregation activity of a compound according to the present invention, the following experiment was performed using SDS-PAGE.
(§5) When peptides or proteins are subjected to electrophoresis on an SDS gel, the secondary structures of the proteins are broken. Thus, it is necessary to cross-link the proteins and immobilize their structures. It is achieved by a photo-induced cross-linking such that the structure of accumulated beta-amyloid may not be dismissed during electrophoresis on SDS gel. Specifically, a beta-amyloid stock solution was prepared in a DMSO solution such that Aβ40 or Aβ42 may have a concentration of 5 mM or 2.5 mM, and was […] by 10 times using distilled water to prepare Aβ40 and Aβ42 at a concentration of 500 μM and 250 μM, respectively. It was cultured at 37° C. for 7 to 10 days to prepare a sufficient amount of beta-amyloid aggregate. Subsequently, compounds of chemical formula 1a to 1e according to the present invention or distilled water were again added into each accumulated beta-amyloid to obtain 10-times diluted solutions, and then they were cultured at 37° C. for 7 days. Distilled water was used as a control group. The final concentration of the compound was 20 mM, and the final concentrations of beta-amyloid Aβ40 or Aβ42 were 50 μM and 25 μM, respectively. […]

accumulated Aβ42 = target: T3, accumulated Aβ42 (Homo sapiens, UniProt P05067); assay: Beta-amyloid fibril disaggregation activity by SDS-PAGE, Aβ42; type: biochemical; conditions: Aβ42 25 μM, compound 20 mM, 3rd and 7th day, photo-induced cross-linking, silver staining
T3 construct: beta-amyloids 40 and 42 consisting of 40 and 42 amino acids
T3 sequence (P05067 672-713 limits assumed): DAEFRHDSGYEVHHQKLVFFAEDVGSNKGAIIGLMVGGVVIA
Description: as §4, §5

[1] = target: T4, beta-amyloid 40 aggregate (Homo sapiens, UniProt P05067); assay: Beta-amyloid fibril disaggregation activity by electronic microscope, Aβ40; type: biochemical; conditions: Aβ40 50 μM, compound 20 mM, 3rd and 7th days, FIG. 6
T4 construct: beta-amyloids 40 and 42 consisting of 40 and 42 amino acids
T4 sequence (P05067 672-711 limits assumed): as the sequence (P05067 672-711 limits assumed) above
Description: (§6) In order to measure accumulated beta-amyloid disaggregation activity of a compound according to the present invention, the following experiment was performed using electronic microscope.
(§7) A beta-amyloid stock solution was prepared such that Aβ40 or Aβ42 might have a concentration of 5 mM and 2.5 mM, respectively, and diluted in distilled water by 10 times to prepare Aβ40 and Aβ42 at a final concentration of 500 μM and 250 μM, respectively. It was cultured at 37° C. for 7 to 10 days to prepare a sufficient amount of beta-amyloid aggregate. Subsequently, compounds of chemical formula 1a to 1e according to the present invention or distilled water were again added into each accumulated beta-amyloid to obtain 10-times diluted solutions, and then it was cultured at 37° C. for 7 days. Distilled water was used as a control group. The final concentration of the compound was 20 mM, and the final concentrations of beta-amyloid Aβ40 or Aβ42 were 50 μM and 25 μM, respectively. Subsequently, a compound of chemical formula 1a was added, and then the mixture was cultured at 37° C. for 7 days. From each of the reaction solutions on 0th, 3rd, and 7th days after addition of distilled water or the compound, the accumulations and disaggregation degrees of accumulated beta-amyloid were observed using analytical transmission electron microscope. […]

[2] = system: HT-22 cells treated with Aβ40; assay: Cell viability (MTT) on beta-amyloid toxicity, Aβ40; type: cell-based, rat; conditions: HT-22, Aβ40 2 μM pre-treated with compound, 24 hours, untreated cells = 100%, FIG. 8 (a)
Description: (§8) In order to determine the cell survival rate of a compound according to the present invention on beta-amyloid toxicity, the following example was performed.
(§9) In order to obtain beta-amyloid aggregates, a beta-amyloid stock solution was prepared. The beta-amyloid stock solutions were prepared in a DMSO solution such that Aβ40 or Aβ42 might have a concentration of 5 mM and 2.5 mM, respectively, and diluted in distilled water by 10 times to prepare Aβ40 and Aβ42 at a final concentration of 500 μM and 250 μM, respectively. Distilled water added to each solution to culture a 10 times diluted beta-amyloid at 37° C. for 7 to 10 days. Subsequently, compounds of chemical formula 1a to 1e according to the present invention or distilled water were again added into each beta-amyloid to obtain 10-times diluted solutions, and then it was cultured at 37° C. for 7 days. Distilled water was used as a control group instead of the compound. […] The cytotoxicity of the reaction solutions on 0th, 3rd, and 7th days after addition of distilled water or the compound was measured using the following cell line.
(§10) HT-22, a neuronal cell line of a rat, was cultured in DMEM (Dulbecco's Modified Eagle's Medium) supplemented with 10% FBS (Fetal Bovine Serum) and 1% penicillin/streptomycin in an incubator of 37° C. and 5% CO2. […] 18 hours later, the optical absorption was determined at 570 nm by a microplate reader. […]

[3] = system: HT-22 cells treated with Aβ42; assay: Cell viability (MTT) on beta-amyloid toxicity, Aβ42; type: cell-based, rat; conditions: HT-22, Aβ42 1 μM pre-treated with compound, 24 hours, untreated cells = 100%, FIG. 8 (b)
Description: as §8, §9, §10

[4] = target: T5, beta-amyloid 42 aggregate (Homo sapiens, UniProt P05067); assay: Beta-amyloid fibril disaggregation activity by electronic microscope, Aβ42; type: biochemical; conditions: Aβ42 25 μM, compound 20 mM, 3rd and 7th days, FIG. 7
T5 construct: beta-amyloids 40 and 42 consisting of 40 and 42 amino acids
T5 sequence (P05067 672-713 limits assumed): as the sequence (P05067 672-713 limits assumed) above
Description: as §6, §7

HT-22 cells = assay: Cytotoxicity of the compound alone (MTT); type: cell-based, rat; conditions: HT-22, without any treatment of beta-amyloid, untreated cells = 100%
Aβ42 fibril = target: T6, Aβ42 fibril (Homo sapiens, UniProt P05067); assay: Accumulated beta-amyloid disaggregation activity by thioflavin T (ThT) fluorescence intensity, Aβ42; type: biochemical; conditions: Aβ42 25 μM, compound 20 mM
T6 construct: beta-amyloids 40 and 42 consisting of 40 and 42 amino acids
T6 sequence (P05067 672-713 limits assumed): as above
Description: as §1, §2, §3

Aβ40 = target: T7, Aβ40 (Homo sapiens, UniProt P05067); assay: Beta-amyloid accumulation inhibitory activity by thioflavin T (ThT) fluorescence intensity; type: biochemical; conditions: Aβ40 50 μM, compound 20 mM (test compound: chemical formula 1a), 37° C., 0th to 7th day, FIG. 1
T7 construct: beta-amyloids 40 and 42 consisting of 40 and 42 amino acids
T7 sequence (P05067 672-711 limits assumed): as the sequence (P05067 672-711 limits assumed) above
Description: In order to measure the beta-amyloid accumulation inhibitory activity of a compound according to the present invention, the following experiment was performed using thioflavin T (ThT) fluorescence intensity.
Thioflavin T (ThT) is well mixed with fibril which is a beta-amyloid aggregate in a solution and tends to increase the shifted fluorescence intensity as the concentration of fibril increases.
A solution was prepared in a DMSO solution such that Aβ40 might have a concentration of 5 mM, and diluted in a compound of chemical formula 1a by 100 times to prepare Aβ40 at a final concentration of 50 μM. The concentration of the compound was 20 mM. Tramiprosate was used as a control group. Tramiprosate is a compound known to treat Alzheimer's disease and related diseases by inhibiting the accumulation of beta-amyloid (F. Gervais, J. et al. (2007)). Subsequently, it was cultured at 37° C. for 7 days. […] It was cultured for additional 15 minutes, and then the fluorescence intensity of a half well 96 fluorescence microplate was measured by Envision 2103 multilabel reader, Perkin-Elmer. During the measurement of fluorescence intensity, the wavelengths of excitation and emission were 450 nm and 485 nm, respectively and the counting time was 0.5 sec.

Compound: O=S(=O)(O)CCCN1CCN(CCO)CC1 [chemical formula 1a]
course of ThT fluorescence intensity over time (Aβ40 fibril; 0th, 3rd, 7th day, FIG. 2 (a)): increased over time
disaggregation of accumulated beta-amyloid into monomers (SDS-PAGE band near 3.5 kD) (accumulated Aβ40): disaggregated into monomers
disaggregation of accumulated beta-amyloid into monomers (SDS-PAGE band near 3.5 kD) (accumulated Aβ42): disaggregated into monomers
beta-amyloid fibrils in transmission electron microscope images [1]: no beta-amyloid fibrils appeared on 3rd and 7th days
cell viability [2]: ≥ 95%
cell viability [3]: ≥ 95%
beta-amyloid fibrils in transmission electron microscope images [4]: no beta-amyloid fibrils appeared on 3rd and 7th days
cell viability, compound only (HT-22 cells): ≥ 95%
course of ThT fluorescence intensity over time (Aβ42 fibril; 0th, 3rd, 7th day, FIG. 2 (b)): increased over time

ThT fluorescence intensity compared to initially prepared aggregates (prefibrils) (Aβ40 fibril; 37° C., up to 7 days): increased
ThT fluorescence intensity compared to initially prepared aggregates (prefibrils) (Aβ42 fibril; 37° C., up to 7 days): increased
Compound: O=S(=O)(O)CC(O)CN1CCN(CCO)CC1 (centres unmarked) [chemical formula 2, HEPPSO]
disaggregation activity to the beta-amyloid aggregate (ThT) (Aβ40 fibril): does not exhibit any disaggregation activity
disaggregation activity to the beta-amyloid aggregate (ThT) (Aβ42 fibril): does not exhibit any disaggregation activity

increase of ThT fluorescence intensity (Aβ40): about 3.5 times
Compound: NCCCS(=O)(=O)O [tramiprosate, Tramiprosate]
